Results on twelve compounds are retold here after patent US20220251141A1, “IMMUNOMODULATORS” (Bristol-Myers Squibb Company, priority 2019, published 2022).

pIC50: −log10 of the molar value. Numbered stars: 1 amine (or outer) side, 2 acyl side, 3 side chain; on linkers, the order of the positions; unused ones are H or OH. Bridge positions count the residues as written; N and C are the ends. Square brackets hold non-standard residues; d marks the D form. Side chains are listed from the residue outwards. Peptide text beside a SMILES is read from it. * marks the point of attachment. Trp(1-CH2CO2Me) = COC(=O)Cn1cc(C[C@H](N)C(=O)O)c2ccccc21; Trp(1-CH2COOH) = N[C@@H](Cc1cn(CC(=O)O)c2ccccc12)C(=O)O; X5 = CN(C)S(=O)(=O)NCC[C@H](N[*:1])C(=O)[*:2]; X4 = CN(C)S(=O)(=O)NC[C@H](N[*:1])C(=O)[*:2]; NHCH2CH2Ph(3,4-OCH2O) = c1cc2c(cc1CCN*)OCO2; Trp(1-Me) = Cn1cc(C[C@H](N)C(=O)O)c2ccccc21; Phe(4-F) = N[C@@H](Cc1ccc(F)cc1)C(=O)O; X9 = N#CNCC[C@H](N[*:1])C(=O)[*:2]; X8 = N#CNC[C@H](N[*:1])C(=O)[*:2]; Hexyloxycarbonyl = CCCCCCOC(=O)*; Hyp = O=C(O)[C@@H]1C[C@@H](O)CN1; NMeNle = CCCC[C@H](NC)C(=O)O; Pip = O=C(O)[C@@H]1CCCCN1; NMeA = CN[C@@H](C)C(=O)O; Dab = NCC[C@H](N)C(=O)O; Dap = NC[C@H](N)C(=O)O; NH(heptyl) = CCCCCCCN*; CO = O=C([*:1])[*:2]; Piv = CC(C)(C)C(=O)*

For the test, the target named is T1, PD-1/PD-L1 (Homo sapiens, UniProt Q9NZQ7).
T1 construct: TVMV protease site linker (C); made in house; host or cells: HEK293T cells
The experiment in a line: PD-1/PD-L1 Homogenous Time-Resolved Fluorescence (HTRF) binding assay. The following applies: PD-L1-His 10 nM final, PD-1-Ig 20 nM final; inhibitors pre-incubated with PD-L1-His for 15 m. The method, boiled down: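 Compounds pre-incubated 15 min with human PD-L1(18-239)-His (10 nM final), then PD-1(25-167)-Ig (20 nM final) added for 15 min, in dPBS with 0.1% BSA and 0.05% Tween-20. Eu-cryptate anti-Ig (1 nM) and APC anti-His (20 nM) added, 30 min equilibration, 665/620 nm ratio read; IC50 reported.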
Background: Time-resolved FRET reads energy transfer from a long-lived donor to a nearby acceptor.
Broadly, the pIC50 is the IC50 on a negative log10 scale, so that one unit is a factor of ten. A low value points to a high IC50. `CCCC[C@H]1C(=O)N(C)[C@@H](CCCC)C(=O)N[C@@H](CC(C)C)C(=O)N[C@H](C(=O)NCC(N)=O)CSCC(=O)N[C@@H](Cc2ccc(O)cc2)C(=O)N(C)[C@@H](C)C(=O)N[C@@H](CC(N)=O)C(=O)N2CCC[C@H]2C(=O)N[C@@H](CNS(=O)(=O)N(C)C)C(=O)N[C@@H](CC(C)C)C(=O)N2C[C@H](O)C[C@H]2C(=O)N[C@@H](Cc2c[nH]c3ccccc23)C(=O)N[C@@H](CCNS(=O)(=O)N(C)C)C(=O)N[C@@H](Cc2cn(CC(=O)O)c3ccccc23)C(=O)N1C` [Example 1022] ({CH2CO}-Y[NMeA]NP[X4]L[Hyp]W[X5][Trp(1-CH2COOH)][NMeNle][NMeNle]LCG-NH2; thioether N-14) had a pIC50 of 7.82.

`CCCC[C@H]1C(=O)N(C)[C@@H](CCCC)C(=O)N[C@@H](CC(C)C)C(=O)N[C@H](C(=O)NCC(N)=O)CSCC(=O)N[C@@H](Cc2ccc(O)cc2)C(=O)N(C)[C@@H](C)C(=O)N[C@@H](CC(N)=O)C(=O)N2CCC[C@H]2C(=O)N[C@@H](CNC(=O)NCCc2ccc3c(c2)OCO3)C(=O)N[C@@H](CC(C)C)C(=O)N2C[C@H](O)C[C@H]2C(=O)N[C@@H](Cc2c[nH]c3ccccc23)C(=O)N[C@@H](CCN)C(=O)N[C@@H](Cc2cn(CC(=O)O)c3ccccc23)C(=O)N1C` [Example 1039] ({CH2CO}-Y[NMeA]NP[Dap]([CO-NHCH2CH2Ph(3,4-OCH2O)])L[Hyp]W[Dab][Trp(1-CH2COOH)][NMeNle][NMeNle]LCG-NH2; thioether N-14) showed a pIC50 of 8.82. Compared with the last compound, the pIC50 is 1.00 log units higher.

With `CCCCCCCNC(=O)NCC[C@@H]1NC(=O)[C@H](Cc2c[nH]c3ccccc23)NC(=O)[C@@H]2C[C@@H](O)CN2C(=O)[C@H](CC(C)C)NC(=O)[C@H](CNC(=O)NCCCCCCC)NC(=O)[C@@H]2CCCN2C(=O)[C@H](CC(N)=O)NC(=O)[C@H](C)N(C)C(=O)[C@H](Cc2ccc(O)cc2)NC(=O)CSC[C@@H](C(=O)NCC(N)=O)NC(=O)[C@H](CC(C)C)NC(=O)[C@H](CCCC)N(C)C(=O)[C@H](CCCC)N(C)C(=O)[C@H](Cc2cn(CC(=O)O)c3ccccc23)NC1=O` [Example 1033] ({CH2CO}-Y[NMeA]NP[Dap]([CO-NH(heptyl)])L[Hyp]W[Dab]([CO-NH(heptyl)])[Trp(1-CH2COOH)][NMeNle][NMeNle]LCG-NH2; thioether N-14), the pIC50 was 8.12.

As to `CCCC[C@H]1C(=O)N(C)[C@@H](CCCC)C(=O)N[C@@H](CC(C)C)C(=O)N[C@H](C(N)=O)CSCC(=O)N[C@@H](Cc2ccc(F)cc2)C(=O)N2CCCC[C@H]2C(=O)N[C@@H](CC(N)=O)C(=O)N2CCC[C@H]2C(=O)N[C@@H](CNC(=O)C(C)(C)C)C(=O)N[C@@H](CC(C)C)C(=O)N2C[C@H](O)C[C@H]2C(=O)N[C@@H](Cc2c[nH]c3ccccc23)C(=O)N[C@@H](CCNC(=O)C(C)(C)C)C(=O)N[C@@H](Cc2cn(C)c3ccccc23)C(=O)N1C` [Example 20280] ({CH2CO}-[Phe(4-F)][Pip]NP[Dap](Piv)L[Hyp]W[Dab](Piv)[Trp(1-Me)][NMeNle][NMeNle]LC-NH2; thioether N-14), the negative logarithm of the IC50 (pIC50) was 7.30.

Take `CCCC[C@H]1C(=O)N(C)[C@@H](CCCC)C(=O)N[C@@H](CCC(N)=O)C(=O)N[C@H](C(N)=O)CSCC(=O)N[C@@H](Cc2ccc(F)cc2)C(=O)N2CCCC[C@H]2C(=O)N[C@@H](CC(=O)O)C(=O)N2CCC[C@H]2C(=O)N[C@@H](CNC(=O)C(C)(C)C)C(=O)N[C@@H](CCCCN)C(=O)N2C[C@H](O)C[C@H]2C(=O)N[C@@H](Cc2c[nH]c3ccccc23)C(=O)N[C@@H](CCN)C(=O)N[C@@H](Cc2cn(C)c3ccccc23)C(=O)N1C` [Example 20240] ({CH2CO}-[Phe(4-F)][Pip]DP[Dap](Piv)K[Hyp]W[Dab][Trp(1-Me)][NMeNle][NMeNle]QC-NH2; thioether N-14): the negative logarithm of the IC50 (pIC50) is 7.74.

Compound `CCCC[C@H]1C(=O)N(C)[C@@H](CCCC)C(=O)N[C@@H](CC(C)C)C(=O)N[C@H](C(=O)NCC(N)=O)CSCC(=O)N[C@@H](Cc2ccc(O)cc2)C(=O)N(C)[C@@H](C)C(=O)N[C@@H](CC(N)=O)C(=O)N2CCC[C@H]2C(=O)N[C@@H](CNC#N)C(=O)N[C@@H](CC(C)C)C(=O)N2C[C@H](O)C[C@H]2C(=O)N[C@@H](Cc2c[nH]c3ccccc23)C(=O)N[C@@H](CCNC#N)C(=O)N[C@@H](Cc2cn(CC(=O)OC)c3ccccc23)C(=O)N1C` [Example 1020] ({CH2CO}-Y[NMeA]NP[X8]L[Hyp]W[X9][Trp(1-CH2CO2Me)][NMeNle][NMeNle]LCG-NH2; thioether N-14) had a pIC50 of 8.15.

As for `CCCC[C@H]1C(=O)N(C)[C@@H](CCCC)C(=O)N[C@@H](CC(C)C)C(=O)N[C@H](C(N)=O)CSCC(=O)N[C@@H](Cc2ccc(F)cc2)C(=O)N2CCCC[C@H]2C(=O)N[C@@H](CC(=O)O)C(=O)N2CCC[C@H]2C(=O)N[C@@H](CNC(=O)C(C)(C)C)C(=O)N[C@@H](CC(C)C)C(=O)N2CCC[C@H]2C(=O)N[C@@H](Cc2c[nH]c3ccccc23)C(=O)N[C@@H](CCNC(=O)C(C)(C)C)C(=O)N[C@@H](Cc2cn(CC(=O)O)c3ccccc23)C(=O)N1C` [Example 20040] ({CH2CO}-[Phe(4-F)][Pip]DP[Dap](Piv)LPW[Dab](Piv)[Trp(1-CH2COOH)][NMeNle][NMeNle]LC-NH2; thioether N-14), the pIC50 was 8.08.

`CCCC[C@H]1C(=O)N(C)[C@@H](CCCC)C(=O)N[C@@H](CC(C)C)C(=O)N[C@H](C(N)=O)CSCC(=O)N[C@@H](Cc2ccc(F)cc2)C(=O)N2CCCC[C@H]2C(=O)N[C@@H](CC(N)=O)C(=O)N2CCC[C@H]2C(=O)N[C@@H](CNC(=O)C(C)(C)C)C(=O)N[C@@H](CC(C)C)C(=O)N2C[C@H](O)C[C@H]2C(=O)N[C@@H](Cc2c[nH]c3ccccc23)C(=O)N[C@@H](CCN)C(=O)N[C@@H](Cc2cn(CC(=O)O)c3ccccc23)C(=O)N1C` [Example 20300] ({CH2CO}-[Phe(4-F)][Pip]NP[Dap](Piv)L[Hyp]W[Dab][Trp(1-CH2COOH)][NMeNle][NMeNle]LC-NH2; thioether N-14): the pIC50 is 7.42.

The compound `CCCCCCOC(=O)NCC[C@@H]1NC(=O)[C@H](Cc2c[nH]c3ccccc23)NC(=O)[C@@H]2C[C@@H](O)CN2C(=O)[C@H](CC(C)C)NC(=O)[C@H](CNC(=O)OCCCCCC)NC(=O)[C@@H]2CCCN2C(=O)[C@H](CC(N)=O)NC(=O)[C@H](C)N(C)C(=O)[C@H](Cc2ccc(O)cc2)NC(=O)CSC[C@@H](C(=O)NCC(N)=O)NC(=O)[C@H](CC(C)C)NC(=O)[C@H](CCCC)N(C)C(=O)[C@H](CCCC)N(C)C(=O)[C@H](Cc2cn(CC(=O)OC)c3ccccc23)NC1=O` [Example 1016] ({CH2CO}-Y[NMeA]NP[Dap](Hexyloxycarbonyl)L[Hyp]W[Dab](Hexyloxycarbonyl)[Trp(1-CH2CO2Me)][NMeNle][NMeNle]LCG-NH2; thioether N-14) gave a pIC50 of 7.92.

Regarding `CCCC[C@H]1C(=O)N(C)[C@@H](CCCC)C(=O)N[C@@H](CC(C)C)C(=O)N[C@H](C(=O)NCC(N)=O)CSCC(=O)N[C@@H](Cc2ccc(O)cc2)C(=O)N(C)[C@@H](C)C(=O)N[C@@H](CC(N)=O)C(=O)N2CCC[C@H]2C(=O)N[C@@H](CNS(=O)(=O)N(C)C)C(=O)N[C@@H](CC(C)C)C(=O)N2C[C@H](O)C[C@H]2C(=O)N[C@@H](Cc2c[nH]c3ccccc23)C(=O)N[C@@H](CCN)C(=O)N[C@@H](Cc2cn(CC(=O)O)c3ccccc23)C(=O)N1C` [Example 1023] ({CH2CO}-Y[NMeA]NP[X4]L[Hyp]W[Dab][Trp(1-CH2COOH)][NMeNle][NMeNle]LCG-NH2; thioether N-14), the pIC50 is 8.17.

`CCCC[C@H]1C(=O)N(C)[C@@H](CCCC)C(=O)N[C@@H](CC(C)C)C(=O)N[C@H](C(=O)NCC(N)=O)CSCC(=O)N[C@@H](Cc2ccc(O)cc2)C(=O)N(C)[C@@H](C)C(=O)N[C@@H](CC(N)=O)C(=O)N2CCC[C@H]2C(=O)N[C@@H](CNC#N)C(=O)N[C@@H](CC(C)C)C(=O)N2C[C@H](O)C[C@H]2C(=O)N[C@@H](Cc2c[nH]c3ccccc23)C(=O)N[C@@H](CCNC#N)C(=O)N[C@@H](Cc2cn(CC(=O)O)c3ccccc23)C(=O)N1C` [Example 1019] ({CH2CO}-Y[NMeA]NP[X8]L[Hyp]W[X9][Trp(1-CH2COOH)][NMeNle][NMeNle]LCG-NH2; thioether N-14) gave a pIC50 of 8.92.

On to `CCCC[C@H]1C(=O)N(C)[C@@H](CCCC)C(=O)N[C@@H](CCC(=O)O)C(=O)N[C@H](C(N)=O)CSCC(=O)N[C@@H](Cc2ccc(F)cc2)C(=O)N2CCCC[C@H]2C(=O)N[C@@H](CC(N)=O)C(=O)N2CCC[C@H]2C(=O)N[C@@H](CNC(=O)C(C)(C)C)C(=O)N[C@@H](CC(C)C)C(=O)N2C[C@H](O)C[C@H]2C(=O)N[C@@H](Cc2c[nH]c3ccccc23)C(=O)N[C@@H](CCNC(=O)C(C)(C)C)C(=O)N[C@@H](Cc2cn(C)c3ccccc23)C(=O)N1C` [Example 20230] ({CH2CO}-[Phe(4-F)][Pip]NP[Dap](Piv)L[Hyp]W[Dab](Piv)[Trp(1-Me)][NMeNle][NMeNle]EC-NH2; thioether N-14), for which the pIC50 is 7.78.
